Measurements taken from patent US9351960B2 (priority 2012, dated 2016).

System: cytopathogenic HCV variant C-13
Test: Antiviral activity in pig embryonic kidney cell (SPEV) cultures infected with HCV
Description: Infectious HCV doses used were equal to 10.0 tissue cytopathogenic doses (TCID50)/20 μL.
The used primary fibroblasts highly sensitive to cytopathogenic action of HCV were obtained after trypsinization of 9-day-old chick embryos (FEC), and the used pig embryonic kidney cell (SPEV) cultures were obtained from the Collection of Cell Cultures of the Institute of Virology RAMS. They were used in the form of a one-day cell monolayer grown in 24-well plastic plates. The SPEV and FEC cell cultures were cultured in medium 199 with 10% fetal calf serum, supplemented with glutamine and antibiotics (100 U/ml).
To study the antiviral activity of the drug, a 50 μL of a solution thereof taken in various dilutions were added to the FEC cultures at the time of infection, 24 hours before and 24 hours after infection of the cells.
The infectious activity of HCV was assessed according to the results of titration of fluid samples in the SPEV cell cultures, wherein the culture fluids were derived from the HCV-infected FEC or SPEV cultures on 2 and 5 days after infection. The results were usually registered 6 or 7 days after infection, when the viral cytopathic effect reached its maximum, using the Reed and Muench formula to determine HCV titers.
Samples of the culture medium were taken on Day 3, Day 4 and Day 5 after infection and titrated in fresh SPEV cell cultures.

O=C(O)CCCC(=O)NCCc1c[nH]cn1 [glutaryl histamine]
HCV titers (lg TCID50 for SPEV cell cultures) in medium samples (SPEV, Day 3, 0.005 μg/mL, treatment 24 hours after infection): 0 lg TCID50 | HCV titers (lg TCID50 for SPEV cell cultures) in medium samples (SPEV, Day 3, 0.005 μg/mL, treatment 24 hours before infection): 3.0 lg TCID50 | HCV titers (lg TCID50 for SPEV cell cultures) in medium samples (SPEV, Day 3, 0.005 μg/mL, treatment at the time of infection): 3.3 lg TCID50 | HCV titers (lg TCID50 for SPEV cell cultures) in medium samples (SPEV, Day 3, 0.05 μg/mL, treatment 24 hours after infection): <1.0 lg TCID50 | HCV titers (lg TCID50 for SPEV cell cultures) in medium samples (SPEV, Day 3, 0.05 μg/mL, treatment 24 hours before infection): 3.2 lg TCID50 | HCV titers (lg TCID50 for SPEV cell cultures) in medium samples (SPEV, Day 3, 0.05 μg/mL, treatment at the time of infection): 3.3 lg TCID50 | HCV titers (lg TCID50 for SPEV cell cultures) in medium samples (SPEV, Day 3, 0.5 μg/mL, treatment 24 hours after infection): 0 lg TCID50 | HCV titers (lg TCID50 for SPEV cell cultures) in medium samples (SPEV, Day 3, 0.5 μg/mL, treatment 24 hours before infection): 3.2 lg TCID50 | HCV titers (lg TCID50 for SPEV cell cultures) in medium samples (SPEV, Day 3, 0.5 μg/mL, treatment at the time of infection): 3.3 lg TCID50 | HCV titers (lg TCID50 for SPEV cell cultures) in medium samples (SPEV, Day 3, 5.0 μg/mL, treatment 24 hours after infection): 0 lg TCID50 | HCV titers (lg TCID50 for SPEV cell cultures) in medium samples (SPEV, Day 3, 5.0 μg/mL, treatment 24 hours before infection): 3.5 lg TCID50 | HCV titers (lg TCID50 for SPEV cell cultures) in medium samples (SPEV, Day 3, 5.0 μg/mL, treatment at the time of infection): 2.3 lg TCID50 | HCV titers (lg TCID50 for SPEV cell cultures) in medium samples (SPEV, Day 3, 50.0 μg/mL, treatment 24 hours after infection): 1.25 lg TCID50 | HCV titers (lg TCID50 for SPEV cell cultures) in medium samples (SPEV, Day 3, 50.0 μg/mL, treatment 24 hours before infection): 3.5 lg TCID50 | HCV titers (lg TCID50 for SPEV cell cultures) in medium samples (SPEV, Day 3, 50.0 μg/mL, treatment at the time of infection): 3.5 lg TCID50 | HCV titers (lg TCID50 for SPEV cell cultures) in medium samples (SPEV, Day 3, 500.0 μg/mL, treatment 24 hours after infection): 0 lg TCID50 | HCV titers (lg TCID50 for SPEV cell cultures) in medium samples (SPEV, Day 3, 500.0 μg/mL, treatment 24 hours before infection): 3.5 lg TCID50 | HCV titers (lg TCID50 for SPEV cell cultures) in medium samples (SPEV, Day 3, 500.0 μg/mL, treatment at the time of infection): 3.0 lg TCID50 | HCV titers (lg TCID50 for SPEV cell cultures) in medium samples (SPEV, Day 4, 0.005 μg/mL, treatment 24 hours after infection): 0 lg TCID50 | HCV titers (lg TCID50 for SPEV cell cultures) in medium samples (SPEV, Day 4, 0.005 μg/mL, treatment 24 hours before infection): 3.4 lg TCID50 | HCV titers (lg TCID50 for SPEV cell cultures) in medium samples (SPEV, Day 4, 0.005 μg/mL, treatment at the time of infection): 4.1 lg TCID50 | HCV titers (lg TCID50 for SPEV cell cultures) in medium samples (SPEV, Day 4, 0.05 μg/mL, treatment 24 hours after infection): 1.3 lg TCID50 | HCV titers (lg TCID50 for SPEV cell cultures) in medium samples (SPEV, Day 4, 0.05 μg/mL, treatment 24 hours before infection): 3.0 lg TCID50 | HCV titers (lg TCID50 for SPEV cell cultures) in medium samples (SPEV, Day 4, 0.05 μg/mL, treatment at the time of infection): 4.4 lg TCID50 | HCV titers (lg TCID50 for SPEV cell cultures) in medium samples (SPEV, Day 4, 0.5 μg/mL, treatment 24 hours after infection): 0 lg TCID50 | HCV titers (lg TCID50 for SPEV cell cultures) in medium samples (SPEV, Day 4, 0.5 μg/mL, treatment 24 hours before infection): 3.8 lg TCID50 | HCV titers (lg TCID50 for SPEV cell cultures) in medium samples (SPEV, Day 4, 0.5 μg/mL, treatment at the time of infection): 4.1 lg TCID50 | HCV titers (lg TCID50 for SPEV cell cultures) in medium samples (SPEV, Day 4, 5.0 μg/mL, treatment 24 hours after infection): 0 lg TCID50 | HCV titers (lg TCID50 for SPEV cell cultures) in medium samples (SPEV, Day 4, 5.0 μg/mL, treatment 24 hours before infection): 3.4 lg TCID50 | HCV titers (lg TCID50 for SPEV cell cultures) in medium samples (SPEV, Day 4, 5.0 μg/mL, treatment at the time of infection): 5.5 lg TCID50 | HCV titers (lg TCID50 for SPEV cell cultures) in medium samples (SPEV, Day 4, 50.0 μg/mL, treatment 24 hours after infection): 2.6 lg TCID50 | HCV titers (lg TCID50 for SPEV cell cultures) in medium samples (SPEV, Day 4, 50.0 μg/mL, treatment 24 hours before infection): 3.8 lg TCID50 | HCV titers (lg TCID50 for SPEV cell cultures) in medium samples (SPEV, Day 4, 50.0 μg/mL, treatment at the time of infection): 5.0 lg TCID50 | HCV titers (lg TCID50 for SPEV cell cultures) in medium samples (SPEV, Day 4, 500.0 μg/mL, treatment 24 hours after infection): 0 lg TCID50 | HCV titers (lg TCID50 for SPEV cell cultures) in medium samples (SPEV, Day 4, 500.0 μg/mL, treatment 24 hours before infection): 3.8 lg TCID50 | HCV titers (lg TCID50 for SPEV cell cultures) in medium samples (SPEV, Day 4, 500.0 μg/mL, treatment at the time of infection): 4.2 lg TCID50 | HCV titers (lg TCID50 for SPEV cell cultures) in medium samples (SPEV, Day 5, 0.005 μg/mL, treatment 24 hours after infection): 0 lg TCID50 | HCV titers (lg TCID50 for SPEV cell cultures) in medium samples (SPEV, Day 5, 0.005 μg/mL, treatment 24 hours before infection): 4.5 lg TCID50 | HCV titers (lg TCID50 for SPEV cell cultures) in medium samples (SPEV, Day 5, 0.005 μg/mL, treatment at the time of infection): 5.5 lg TCID50 | HCV titers (lg TCID50 for SPEV cell cultures) in medium samples (SPEV, Day 5, 0.05 μg/mL, treatment 24 hours after infection): 1.8 lg TCID50 | HCV titers (lg TCID50 for SPEV cell cultures) in medium samples (SPEV, Day 5, 0.05 μg/mL, treatment 24 hours before infection): 4.5 lg TCID50 | HCV titers (lg TCID50 for SPEV cell cultures) in medium samples (SPEV, Day 5, 0.05 μg/mL, treatment at the time of infection): 5.0 lg TCID50 | HCV titers (lg TCID50 for SPEV cell cultures) in medium samples (SPEV, Day 5, 0.5 μg/mL, treatment 24 hours after infection): 0 lg TCID50 | HCV titers (lg TCID50 for SPEV cell cultures) in medium samples (SPEV, Day 5, 0.5 μg/mL, treatment 24 hours before infection): 4.5 lg TCID50 | HCV titers (lg TCID50 for SPEV cell cultures) in medium samples (SPEV, Day 5, 0.5 μg/mL, treatment at the time of infection): 5.5 lg TCID50 | HCV titers (lg TCID50 for SPEV cell cultures) in medium samples (SPEV, Day 5, 5.0 μg/mL, treatment 24 hours after infection): 0 lg TCID50 | HCV titers (lg TCID50 for SPEV cell cultures) in medium samples (SPEV, Day 5, 5.0 μg/mL, treatment 24 hours before infection): 4.5 lg TCID50 | HCV titers (lg TCID50 for SPEV cell cultures) in medium samples (SPEV, Day 5, 5.0 μg/mL, treatment at the time of infection): 5.5 lg TCID50 | HCV titers (lg TCID50 for SPEV cell cultures) in medium samples (SPEV, Day 5, 50.0 μg/mL, treatment 24 hours after infection): 2.8 lg TCID50 | HCV titers (lg TCID50 for SPEV cell cultures) in medium samples (SPEV, Day 5, 50.0 μg/mL, treatment 24 hours before infection): 4.5 lg TCID50 | HCV titers (lg TCID50 for SPEV cell cultures) in medium samples (SPEV, Day 5, 50.0 μg/mL, treatment at the time of infection): 7.0 lg TCID50 | HCV titers (lg TCID50 for SPEV cell cultures) in medium samples (SPEV, Day 5, 500.0 μg/mL, treatment 24 hours after infection): 0 lg TCID50 | HCV titers (lg TCID50 for SPEV cell cultures) in medium samples (SPEV, Day 5, 500.0 μg/mL, treatment 24 hours before infection): 6.0 lg TCID50 | HCV titers (lg TCID50 for SPEV cell cultures) in medium samples (SPEV, Day 5, 500.0 μg/mL, treatment at the time of infection): 5.5 lg TCID50 | suppression of HCV infectious activity (SPEV, Day 5 after infection and simultaneous treatment of the cells): 2.2-2.7 lg TCID50/20 μg | suppression of the production of HCV compared with the control (SPEV, medium collected on Day 5 after infection): 2.2 lg TCID50/20 μg | HCV replication in SPEV cell cultures (added to the cultures 24 hours after infection): significantly suppresses
